Read-outs that look alike come from different tables or passages of the source. Values belong to the compound of their own block, whether it stands above or below them.
Key:
[1] = biological target: T1, thrombin binding to GpIbα269-286ppp (Homo sapiens, UniProt P00734); test: SPR: effect of active site inhibitors on thrombin binding to immobilized GpIbα269-286ppp; details: for increase in affinity of thrombin for GpIbα269-286ppp: 2.5 μM inhibitor vs no inhibitor, p < 0.001; for Change: difference between thrombin binding without inhibitor and at saturating inhibitor
T1 construct: purchased Enzyme Research Laboratories (South Bend, IN)
Procedure: Between runs, flow cells were regenerated with 1 M NaCl for 30 s. […] EC50 values were determined as above. […] Binding affinities were calculated as described above.

[2] = biological target: thrombin binding to immobilized γA/γ′-fibrin (Homo sapiens, UniProt P00734); test: SPR: effect of active site inhibitors on thrombin binding to immobilized γA/γ′-fibrin
Procedure: (§1) Flows cells were then washed with 1 M ethanolamine for 420 s, followed by the running buffer composed of 20 mM HEPES, 150 mM NaCl, pH 7.4 (HBS) containing 0.01% Tween-80 (HBS-Tw) and 5 mM CaCl2.
(§2) Because of the fast on- and off-rates, all SPR experiments were performed at a flow rate of 25 μl/min [28]. Association times were 120 s and dissociation was monitored by washing the flow cells with HBS-Tw for 600 s. Between runs, flow cells were regenerated with a 45 s wash with HBS-Tw containing 0.5 M CaCl2.
(§3) The rapid approach to equilibrium at the low flow rate nullified any potential mass transport concerns. Nonspecific binding was accounted for by subtracting the control RU values obtained from the unmodified flow cell.

[3] = biological target: thrombin binding to immobilized factor Va (Homo sapiens, UniProt P00734); test: SPR: effect of active site inhibitors on thrombin binding to immobilized factor Va
Procedure: as §1, §2, §3

[4] = biological target: T2, 125I-thrombin binding to γA/γA-fibrin clots (Homo sapiens, UniProt P00734); test: 125I-thrombin binding to γA/γA-fibrin clots; details: for Ki: EC50 converted by Cheng-Prusoff with Kd of 125I-thrombin for fibrin, 10 nM 125I-thrombin, 3 μM γA/γA-fibrinogen
T2 construct: purchased Enzyme Research Laboratories (South Bend, IN)

[5] = biological target: thrombin; details: thrombin inhibition; cited from earlier work
[6] = biological target: T3, 125I-thrombin binding to γA/γ′-fibrin clots (Homo sapiens, UniProt P00734); test: 125I-thrombin binding to γA/γ′-fibrin clots; details: for Ki: EC50 converted by Cheng-Prusoff with Kd of 125I-thrombin for fibrin, 10 nM 125I-thrombin, 1 μM γA/γ′-fibrinogen
T3 construct: purchased Enzyme Research Laboratories (South Bend, IN)

[7] = biological target: thrombin binding to immobilized γA/γA-fibrin (Homo sapiens, UniProt P00734); test: SPR: effect of active site inhibitors on thrombin binding to immobilized γA/γA-fibrin
Procedure: as §1, §2, §3

[8] = 0–5000 nM inhibitor, 250–500 nM thrombin
[9] = maximal change in percentage of bound 125I-thrombin vs no inhibitor
[10] = maximal change in percentage of bound 125I-thrombin vs no inhibitor, listed as argatroban
[11] = given as reduction (positive number)
[12] = maximal change in percentage of bound 125I-thrombin vs no inhibitor, listed as hirudin

Compound: CCC1CCN(C(=O)C(CCCN=C(N)N)NS(=O)(=O)c2cccc3c(N(C)C)cccc23)CC1 (stereo not shown) [DAPA, dansylarginine N-(3-ethyl-1,5-pentanediyl)amide]
EC50 ([1]; 0–5000 nM inhibitor, 250 nM thrombin): 1290 ± 32.3 nM | increase in affinity of thrombin for GpIbα269-286ppp [1]: 25–35% | EC50 [2, 8]: 516 ± 31 nM | EC50 [3, 8]: 565 ± 200 nM | Ki [4]: 2.1 ± 0.9 nM | Ki [5]: 45 nM | Ki [6]: 19.6 ± 19.1 nM | EC50 ([7]; 0–5000 nM inhibitor, 250–500 nM thrombin, Req vs inhibitor concentration): 514 ± 24 nM

increase in affinity of thrombin for GpIbα269-286ppp [1]: 25–35% | Change [1]: +17.3 ± 0.6% | Change ([1]; listed as argatroban): 17% | Change [4, 9]: +18.3 ± 5.0% | Change [4, 10]: 15–25% | Change [6, 9]: +26.1 ± 0.4% | Change [6, 10]: 15–25%
Compound: CC1CNc2c(cccc2S(=O)(=O)N[C@@H](CCCNC(=N)N)C(=O)N2CC[C@@H](C)C[C@@H]2C(=O)O)C1 (stereo partly shown) [Argatroban, argatroban]

Compound: [H]/N=C(/N)c1ccc(NCc2nc3cc(C(=O)N(CCC(=O)O)c4ccccn4)ccc3n2C)cc1 [Dabigatran, dabigatran]
Change [1]: 0% | Change ([1]; listed as dabigatran): no effect | reduction of thrombin binding at saturation [2, 11]: 28.4 ± 1.6% | reduction of thrombin binding at saturation [3, 11]: 37.9 ± 3.2% | Change [4]: -21.4 ± 3.3% | Change [6]: -9.4 ± 1.4% | reduction of thrombin binding at saturation [7, 11]: 47.6 ± 0.4%

Compound: Hirudin
Ki [4]: 3.4 ± 0.3 nM | Change [4, 9]: -100% | Change [4, 12]: fully inhibited | Ki [6]: 3.4 ± 0.1 nM | Change [6, 9]: -100% | Change [6, 12]: fully inhibited

Source: article PMC4909201 (PLoS ONE, 2016)
